Data taken from publication PMC7037682, “Herb–Drug Interaction of Red Ginseng Extract and Ginsenoside Rc with Valsartan in Rats” (Molecules, 2020).

Experiments:
UGT2B7 = test system: UGT2B7; set-up: method as in PMID 27462006; settings: cited from earlier work
UGT1A3 = test system: UGT1A3; set-up: method as in PMID 27462006; settings: cited from earlier work
UGT1A9 = settings: cited from earlier work; for IC50: read-out: IC50 UGT1A9
[1] = Protein binding in rat plasma by rapid equilibrium dialysis; format: in vitro ADME; settings: rapid equilibrium dialysis 4 h 37 °C
Protocol: The protein binding of Rb1, Rb2, and Rc (1 μM) in rat plasma and liver homogenate was determined using a rapid equilibrium dialysis kit (ThermoFisher Scientific Korea, Seoul, Korea) according to the manufacturer’s instructions. Briefly, 100 μL of rat plasma and 10% liver homogenate samples containing Rb1, Rb2, or Rc (1 μM) were added to the sample chamber of a semipermeable membrane (molecular weight cut-off 8000 Da) and 300 μL of HBSS was added to the outer buffer chamber. Four hours after incubation at 37 °C on a shaking incubator at 300 rpm, aliquots (50 μL) were collected from both the sample and buffer chambers and treated with equal volumes of fresh HBSS and plasma, respectively, to match the sample matrices. The matrix-matched samples (100 μL) were mixed with 300 μL of 80% ice-cold methanol containing berberine 0.05 ng/mL and 0.1% formic acid for 15 min.
Plasma protein binding was calculated using the following equation [47]. (1) Undiluted free drug fraction fu= Drug concentration in buffer chamber/Drug concentration in plasma chamber

[2] = repeated red ginseng extract 3 g/day ref 14, 41; cited from earlier work
OATP1B3 = settings: cited from earlier work
CYP2C9 = test system: CYP2C9; set-up: method as in PMID 30078466; settings: cited from earlier work
OATP1B1 = settings: cited from earlier work
[3] = Plasma pharmacokinetics of Rc in rats after repeated iv injection; format: in vivo; settings: rat plasma, Rc 3 mg/kg/day iv for 5 days
Protocol: The rats were randomly divided into the control and Rc groups. The Rc group was injected with Rc solution (3 mg/mL/kg, dissolved in saline) intravenously via the tail vein for 5 consecutive days. The control group received saline (1 mL/kg) for 5 consecutive days via the tail vein. After 1 h following the last Rc treatment, valsartan was injected intravenously via the femoral vein at 1 mg/kg.

[4] = Plasma and liver distribution of Rc in rats after iv injection; format: in vivo, rat
Protocol: The rats were injected with Rc solution (3 mg/mL/kg, dissolved in saline) via the tail vein. Blood samples were collected from the abdominal artery, and the liver tissue was immediately excised, gently washed with ice-cold saline, and weighed after the rats were euthanized at 2, 12, and 48 h after intravenous injection of Rc. The blood samples were centrifuged (16,000× g, 10 min, 4 °C) and the liver tissue samples were homogenized with four volumes of saline. Aliquots (50 μL each) of plasma and liver homogenates were stored at −80 °C until the analysis of the ginsenoside Rc.

CC(C)=CCC[C@](C)(O)[C@H]1CC[C@]2(C)[C@@H]1[C@H](O)C[C@@H]1[C@@]3(C)CC[C@H](O[C@@H]4O[C@H](CO)[C@@H](O)[C@H](O)[C@H]4O[C@@H]4O[C@H](CO)[C@@H](O)[C@H](O)[C@H]4O)C(C)(C)[C@@H]3CC[C@]12C [Rg3, ginsenoside Rg3]
IC50 (UGT2B7): 23.1 µM
IC50 (UGT1A3): 20.9 µM
IC50 (UGT1A9): 15.1 µM

CC(C)=CCC[C@](C)(O)[C@H]1CC[C@]2(C)[C@@H]1[C@H](O)C[C@@H]1[C@@]3(C)CC[C@H](O[C@@H]4O[C@H](CO)[C@@H](O)[C@H](O)[C@H]4O)C(C)(C)[C@@H]3CC[C@]12C [Rh2, ginsenoside Rh2]
IC50 (UGT1A3): 37.9 µM

CC(C)=CCC[C@](C)(O[C@@H]1O[C@H](CO[C@@H]2OC[C@H](O)[C@H](O)[C@H]2O)[C@@H](O)[C@H](O)[C@H]1O)[C@H]1CC[C@]2(C)[C@@H]1[C@H](O)C[C@@H]1[C@@]3(C)CC[C@H](O[C@@H]4O[C@H](CO)[C@@H](O)[C@H](O)[C@H]4O[C@@H]4O[C@H](CO)[C@@H](O)[C@H](O)[C@H]4O)C(C)(C)[C@@H]3CC[C@]12C [Rb2, ginsenoside Rb2]
fraction unbound at 4 h, 1 μM [1]: 0.001 ± 4e-08
maximum concentration in human blood [2]: 6.2 to 12.7 nM

CC(C)=CCC[C@](C)(O[C@@H]1O[C@H](CO[C@@H]2O[C@H](CO)[C@@H](O)[C@H](O)[C@H]2O)[C@@H](O)[C@H](O)[C@H]1O)[C@H]1CC[C@]2(C)[C@@H]1[C@H](O)C[C@@H]1[C@@]3(C)CC[C@H](O[C@@H]4O[C@H](CO)[C@@H](O)[C@H](O)[C@H]4O[C@@H]4O[C@H](CO)[C@@H](O)[C@H](O)[C@H]4O)C(C)(C)[C@@H]3CC[C@]12C [Rb1, ginsenoside Rb1]
fraction unbound at 4 h, 1 μM [1]: 0.002
IC50 (OATP1B3): 4.8 µM
IC50 (CYP2C9): 2.4 µM
IC50 (UGT1A9): 21.3 µM
IC50 (OATP1B1): 33.2 µM
maximum concentration in human blood [2]: 6.2 to 12.7 nM

CC(C)=CCC[C@](C)(O[C@@H]1O[C@H](CO[C@@H]2O[C@@H](CO)[C@H](O)[C@H]2O)[C@@H](O)[C@H](O)[C@H]1O)[C@H]1CC[C@]2(C)[C@@H]1[C@H](O)C[C@@H]1[C@@]3(C)CC[C@H](O[C@@H]4O[C@H](CO)[C@@H](O)[C@H](O)[C@H]4O[C@@H]4O[C@H](CO)[C@@H](O)[C@H](O)[C@H]4O)C(C)(C)[C@@H]3CC[C@]12C [Rc, ginsenoside Rc]
AUC(0-inf) [3]: 1060 ± 325 µM·h
C0 [3]: 34 ± 5.22 µM
MRT [3]: 38.5 ± 5.11 h
half-life [3]: 27.5 ± 4.26 h
AUC(0-t) ([3]; read-out: AUC24h): 749 ± 185 µM·h
fraction unbound at 4 h, 1 μM [1]: 0.001 ± 7.01e-08
free Rc concentration in rat liver ([4]; estimated from concentration and protein binding): 0.07 to 0.14 µM
Kp ([4]; rat, liver (versus plasma), rats, Rc 3 mg/kg iv, 2, 12 and 48 h, read-out: liver-to-plasma concentration ratio): 0.13 to 0.2
maximum concentration in human blood [2]: 6.2 to 12.7 nM

CC(C)=CCC[C@](C)(O[C@@H]1O[C@H](CO)[C@@H](O)[C@H](O)[C@H]1O)[C@H]1CC[C@]2(C)[C@@H]1[C@H](O)C[C@@H]1[C@@]3(C)CC[C@H](O)C(C)(C)[C@@H]3[C@@H](O[C@@H]3O[C@H](CO)[C@@H](O)[C@H](O)[C@H]3O[C@@H]3O[C@@H](C)[C@H](O)[C@@H](O)[C@H]3O)C[C@]12C [Re, ginsenoside Re]
IC50 UGT1A9 (UGT1A9): did not inhibit

CC(C)=CCC[C@](C)(O[C@@H]1O[C@H](CO)[C@@H](O)[C@H](O)[C@H]1O)[C@H]1CC[C@]2(C)[C@@H]1[C@H](O)C[C@@H]1[C@@]3(C)CC[C@H](O)C(C)(C)[C@@H]3[C@@H](O[C@@H]3O[C@H](CO)[C@@H](O)[C@H](O)[C@H]3O)C[C@]12C [Rg1, ginsenoside Rg1]
IC50 UGT1A9 (UGT1A9): did not inhibit
